Reference: US4317817A, “Novel steroid 5α-reductase inhibitors” (Richardson-Merrell Inc., priority 1980, dated 1982)

Experiments:
[1] = molecular target: 5α-reductase; test: Affinity (Ki, Km) for 5α-reductase; format: biochemical
Excerpt: The potency of any enzyme inhibitor is often expressed in terms of its inhibition constant, Ki, which is defined mathematically in terms of established relationships of enzyme-catalyzed reaction rates to inhibitor and substrate concentrations. […] In the case of the substrate, the corresponding value is known as the Km, the relationship to combining power being roughly the same.

[2] = system: preputial glands; test: Preputial gland weight in castrated male rats treated with testosterone; format: in vivo; details: 200 mg/kg gavage every 8 hours for 8 days plus testosterone 0.6 mg/rat s.c. daily; compared to control rats
[3] = system: ventral prostate; test: Prostate weight in castrated male rats treated with testosterone (benign prostatic hypertrophy procedure); format: in vivo; details: 200 mg/kg gavage every 8 hours for 8 days plus testosterone 0.6 mg/rat s.c. daily; compared to testosterone only (Group II)
Method: The effectiveness of the present compounds for the treatment of benign prostatic hypertrophy can be illustrated by the following procedure using 3 groups of castrated male rats. Starting 10 days after castration, Test Group I (5 animals) received 200 mg/kg of (5α,20R) -4-diazo-21-hydroxy-20-methylpregnan-3-one, given by gavage every 8 hours for 8 days as a suspension in 0.25 % aqueous Methocel. Starting 8 hours after the first dose of test compound, the animals also received testosterone daily at a dose of 0.6 mg/rat s.c. in olive oil. The last dose of test compound was administered 8 hours after the last dose of testosterone and the animals were sacrificed 8 hours later. Test Group II (12 animals) received only the testosterone treatment described above while the third group of rats (10 animals) served as controls and received the oral and s.c. vehicles only. At sacrifice, the ventral prostate was removed and weighed.

[4] = system: testosterone 5α-reductase; test: Inhibition of 5α-reductase isolated from rat prostate gland (prostate microsomes, 4-14C-testosterone); format: biochemical; details: testosterone 2×10^-6 M, microsomes equivalent to 180 mg fresh tissue

CC(CO)[C@H]1CC[C@H]2[C@@H]3CCC4=CC(=O)CC[C@]4(C)[C@H]3CC[C@]12C (stereo partly drawn) [reference compound]
Ki [1]: 220 nM

C[C@]12CC[C@H]3[C@@H](CCC4=CC(=O)CC[C@@]43C)[C@@H]1CC[C@@H]2O [testosterone, reference compound]
Km ([1]; substrate): 1 µM

C[C@@H](CO)[C@H]1CC[C@H]2[C@@H]3CC[C@H]4C(=[N+]=[N-])C(=O)CC[C@]4(C)[C@H]3CC[C@]12C [(5α,20R)-4-Diazo-21-hydroxy-20-methylpregnan-3-one]
weights of preputial glands [2]: significantly less than weights of preputial glands of the control rats | prostatic weight (ventral prostate) [3]: significant reduction in prostatic weight | inhibition of the conversion of testosterone to 5α-reduced products ([4]; inhibitor 3×10^-7 M): 75% | inhibition of the conversion of testosterone to DHT and androstanediol (ADIOL) overall ([4]; inhibitor 3×10^-8 M): 49%

C[C@H](CO)[C@H]1CC[C@H]2[C@@H]3CC[C@H]4C(=[N+]=[N-])C(=O)CC[C@]4(C)[C@H]3CC[C@]12C
Ki [1]: 35 nM | affinity for the enzyme relative to the substrate (testosterone) ([1]; vs Km of testosterone): 29 times | potency relative to the previous inhibitor ([1]; vs previously known inhibitor of the comparison): 6.3 times
